These are literature values, as cited in patent publication US20250041318A1, “STERILANTS COMPOSITION, KITS AND METHODS OF USE THEREOF” (priority 2021, published 2025).

Read-outs that look alike come from different tables or passages of the source.

As a reminder, the Ki is a measure of affinity in units of concentration, obtained from inhibition or displacement. What is called IC50 is the concentration that gives 50% inhibition.

In one series the test system is pancreatic cancer. Particulars: preclinical mouse model of pancreatic cancer.
The target in series [1] is LDH from goat liver (LDH-A4).
In series [2] the target is LDH from goat heart (LDH-B4).
In series [3] the test system is LDH isozymes (LDH-A4, LDH-B4, LDH-C4).
Series [4] addresses LDH from goat testis (LDH-C4).
The mark [5] stands for this setting: Lineweaver-Burk reciprocal plots.

Take `CC(C)[C@]12O[C@H]1[C@@H]1O[C@]13[C@]1(O[C@H]1C[C@H]1C4=C(CC[C@@]13C)C(=O)OC4)[C@@H]2OCOP(=O)(O)O` [Minnelide]: the “Efficacy compared with gemcitabine” value with pancreatic cancer is reported as “even more effective than gemcitabine”.
With `Cc1cc2c(C(C)C)c(O)c(O)c(C=O)c2c(O)c1-c1c(C)cc2c(C(C)C)c(O)c(O)c(C=O)c2c1O` [gossypol], the inhibition constant Ki in series [1] (read-out: Ki against NAD) was 94 µM; in series [1] (read-out: Ki against NADH), 33 µM; in series [1] (read-out: Ki against lactate), 85 µM; in series [1] (read-out: Ki against pyruvate), 20 µM; in series [2] (read-out: Ki against NAD), 108 µM; in series [2] (read-out: Ki against NADH) it was 43 µM. Moreover, the Ki was 85 µM in series [2] (read-out: Ki against lactate); 34 µM in series [2] (read-out: Ki against pyruvate); 83 µM in series [4] (read-out: Ki against NAD); 45 µM in series [4] (read-out: Ki against NADH); 125 µM in series [4] (read-out: Ki against lactate); 29 µM in series [4] (read-out: Ki against pyruvate). In series [3] (3.3 mM lactic acid and 1.8 mM NAD at 25 degrees C. and pH 9.0, read-out: IC50 for the lactate oxidation), the IC50 is 125 µM. Further, the “Manner of inhibition when NAD and NADH were varied as substrates” value in series [3] (setting [5]) is listed as “competitive”. In series [3] (setting [5]), the “Manner of inhibition with respect to pyruvate and lactate” value is recorded as “non-competitive”.
